Test results published in ChEMBL document CHEMBL1143531, “Synthesis, in vitro, and in vivo antibacterial activity of nocathiacin I thiol-Michael adducts” (2005).
≈ marks a conversion by molar mass, not a printed value.

Key:
Type in all cases: functional
Mus musculus = assay: In vivo protective dose required for mouse against systemic lethal […] infection; details: read-out: PD50
Staphylococcus aureus = assay: In vitro minimum inhibitory concentration against methicillin sensitive […] A15090
Streptococcus pneumoniae = assay: In vitro minimum inhibitory concentration against penicillin resistant Streptococcus pneumoniae A28272
Enterococcus faecalis = assay: In vitro minimum inhibitory concentration against methicillin sensitive Enterococcus faecalis A20688

## CO/C(C)=C1/NC(=O)C([C@@H](C)O)NC(=O)c2csc(n2)-c2cc(O)c(-c3nc(C(=O)NC(SCCN(C)C)C(N)=O)cs3)nc2-c2csc(n2)[C@@H]2COC(=O)c3c4c5c(cccc5n3O)COC(=O)[C@@H](O[C@H]3C[C@](C)(O)[C@H](N(C)C)[C@H](C)O3)[C@@H](OC4)[C@H](NC(=O)c3csc1n3)c1nc(cs1)C(=O)N2 (some centres not stated)
Mus musculus
  ED50: 1 mg/kg
Staphylococcus aureus
  MIC: 0.125 µg/mL (≈ 0.0818 µM)
Streptococcus pneumoniae
  MIC: 0.015 µg/mL (≈ 0.00981 µM)
Enterococcus faecalis
  MIC: 0.25 µg/mL (≈ 0.164 µM)

## CCN(CC)CCS(=O)(=O)C(NC(=O)c1csc(-c2nc3c(cc2O)-c2nc(cs2)C(=O)NC([C@@H](C)O)C(=O)N/C(=C(\C)OC)c2nc(cs2)C(=O)N[C@@H]2c4nc(cs4)C(=O)N[C@@H](COC(=O)c4c5c6c(cccc6n4O)COC(=O)[C@@H](O[C@H]4C[C@](C)(O)[C@H](N(C)C)[C@H](C)O4)[C@H]2OC5)c2nc-3cs2)n1)C(N)=O (some centres not stated)
Mus musculus
  ED50: 1.4 mg/kg
Staphylococcus aureus
  MIC: 0.06 µg/mL (≈ 0.0378 µM)
Streptococcus pneumoniae
  MIC: 0.007 µg/mL (≈ 0.00441 µM)
Enterococcus faecalis
  MIC: 0.03 µg/mL (≈ 0.0189 µM)

## CO/C(C)=C1/NC(=O)C([C@@H](C)O)NC(=O)c2csc(n2)-c2cc(O)c(-c3nc(C(=O)NC(SC[C@@H]4NC(=O)NC4=O)C(N)=O)cs3)nc2-c2csc(n2)[C@@H]2COC(=O)c3c4c5c(cccc5n3O)COC(=O)[C@@H](O[C@H]3C[C@](C)(O)[C@H](N(C)C)[C@H](C)O3)[C@@H](OC4)[C@H](NC(=O)c3csc1n3)c1nc(cs1)C(=O)N2 (some centres not stated)
Mus musculus
  ED50: > 10 mg/kg
Staphylococcus aureus
  MIC: 4 µg/mL (≈ 2.55 µM)
Streptococcus pneumoniae
  MIC: 0.03 µg/mL (≈ 0.0191 µM)
Enterococcus faecalis
  MIC: 128 µg/mL (≈ 81.5 µM)

## CO/C(C)=C1/NC(=O)C([C@@H](C)O)NC(=O)c2csc(n2)-c2cc(O)c(-c3nc(C(=O)NC(SCC(NC(C)=O)C(=O)O)C(N)=O)cs3)nc2-c2csc(n2)[C@@H]2COC(=O)c3c4c5c(cccc5n3O)COC(=O)[C@@H](O[C@H]3C[C@](C)(O)[C@H](N(C)C)[C@H](C)O3)[C@@H](OC4)[C@H](NC(=O)c3csc1n3)c1nc(cs1)C(=O)N2 (some centres not stated)
Mus musculus
  ED50: > 10 mg/kg
Staphylococcus aureus
  MIC: 2 µg/mL (≈ 1.26 µM)
Streptococcus pneumoniae
  MIC: 0.125 µg/mL (≈ 0.0788 µM)
Enterococcus faecalis
  MIC: 8 µg/mL (≈ 5.04 µM)

## CO/C(C)=C1/NC(=O)C([C@@H](C)O)NC(=O)c2csc(n2)-c2cc(O)c(-c3nc(C(=O)NC(SC(CC(=O)O)C(=O)O)C(N)=O)cs3)nc2-c2csc(n2)[C@@H]2COC(=O)c3c4c5c(cccc5n3O)COC(=O)[C@@H](O[C@H]3C[C@](C)(O)[C@H](N(C)C)[C@H](C)O3)[C@@H](OC4)[C@H](NC(=O)c3csc1n3)c1nc(cs1)C(=O)N2 (some centres not stated)
Mus musculus
  ED50: > 10 mg/kg
Staphylococcus aureus
  MIC: 4 µg/mL (≈ 2.54 µM)
Streptococcus pneumoniae
  MIC: 0.25 µg/mL (≈ 0.159 µM)
Enterococcus faecalis
  MIC: 4 µg/mL (≈ 2.54 µM)

## CO/C(C)=C1/NC(=O)C([C@@H](C)O)NC(=O)c2csc(n2)-c2cc(O)c(-c3nc(C(=O)NC(SCC(N)C(=O)O)C(N)=O)cs3)nc2-c2csc(n2)[C@@H]2COC(=O)c3c4c5c(cccc5n3O)COC(=O)[C@@H](O[C@H]3C[C@](C)(O)[C@H](N(C)C)[C@H](C)O3)[C@@H](OC4)[C@H](NC(=O)c3csc1n3)c1nc(cs1)C(=O)N2 (some centres not stated)
Staphylococcus aureus
  MIC: 1 µg/mL (≈ 0.647 µM)
Streptococcus pneumoniae
  MIC: 2 µg/mL (≈ 1.29 µM)
Enterococcus faecalis
  MIC: 4 µg/mL (≈ 2.59 µM)

## CO/C(C)=C1/NC(=O)C([C@@H](C)O)NC(=O)c2csc(n2)-c2cc(O)c(-c3nc(C(=O)NC(SCCc4cnccn4)C(N)=O)cs3)nc2-c2csc(n2)[C@@H]2COC(=O)c3c4c5c(cccc5n3O)COC(=O)[C@@H](O[C@H]3C[C@](C)(O)[C@H](N(C)C)[C@H](C)O3)[C@@H](OC4)[C@H](NC(=O)c3csc1n3)c1nc(cs1)C(=O)N2 (some centres not stated)
Mus musculus
  ED50: 4.4 mg/kg
Staphylococcus aureus
  MIC: 0.125 µg/mL (≈ 0.0799 µM)
Streptococcus pneumoniae
  MIC: 0.015 µg/mL (≈ 0.00959 µM)
Enterococcus faecalis
  MIC: 0.25 µg/mL (≈ 0.16 µM)

## CO/C(C)=C1/NC(=O)C([C@@H](C)O)NC(=O)c2csc(n2)-c2cc(O)c(-c3nc(C(=O)NC(SCCN=C(N)N)C(N)=O)cs3)nc2-c2csc(n2)[C@@H]2COC(=O)c3c4c5c(cccc5n3O)COC(=O)[C@@H](O[C@H]3C[C@](C)(O)[C@H](N(C)C)[C@H](C)O3)[C@@H](OC4)[C@H](NC(=O)c3csc1n3)c1nc(cs1)C(=O)N2 (some centres not stated)
Staphylococcus aureus
  MIC: 4 µg/mL (≈ 2.59 µM)
Streptococcus pneumoniae
  MIC: 2 µg/mL (≈ 1.3 µM)
Enterococcus faecalis
  MIC: > 128 µg/mL

## CCN(CC)CCSC(NC(=O)c1csc(-c2nc3c(cc2O)-c2nc(cs2)C(=O)NC([C@@H](C)O)C(=O)N/C(=C(\C)OC)c2nc(cs2)C(=O)N[C@@H]2c4nc(cs4)C(=O)N[C@@H](COC(=O)c4c5c6c(cccc6n4O)COC(=O)[C@@H](O[C@H]4C[C@](C)(O)[C@H](N(C)C)[C@H](C)O4)[C@H]2OC5)c2nc-3cs2)n1)C(N)=O (some centres not stated)
Mus musculus
  ED50: 1.1 mg/kg
Staphylococcus aureus
  MIC: 0.125 µg/mL (≈ 0.0803 µM)
Streptococcus pneumoniae
  MIC: 0.015 µg/mL (≈ 0.00964 µM)
Enterococcus faecalis
  MIC: 0.25 µg/mL (≈ 0.161 µM)

## CO/C(C)=C1/NC(=O)C([C@@H](C)O)NC(=O)c2csc(n2)-c2cc(O)c(-c3nc(C(=O)NC(SCCC(=O)O)C(N)=O)cs3)nc2-c2csc(n2)[C@@H]2COC(=O)c3c4c5c(cccc5n3O)COC(=O)[C@@H](O[C@H]3C[C@](C)(O)[C@H](N(C)C)[C@H](C)O3)[C@@H](OC4)[C@H](NC(=O)c3csc1n3)c1nc(cs1)C(=O)N2 (some centres not stated)
Mus musculus
  ED50: > 10 mg/kg
Staphylococcus aureus
  MIC: 1 µg/mL (≈ 0.654 µM)
Streptococcus pneumoniae
  MIC: 0.01 µg/mL (≈ 0.00654 µM)

## CO/C(C)=C1/NC(=O)C([C@@H](C)O)NC(=O)c2csc(n2)-c2cc(O)c(-c3nc(C(=O)NC(C(N)=O)S(=O)(=O)C4C5CCN4CC5)cs3)nc2-c2csc(n2)[C@@H]2COC(=O)c3c4c5c(cccc5n3O)COC(=O)[C@@H](O[C@H]3C[C@](C)(O)[C@H](N(C)C)[C@H](C)O3)[C@@H](OC4)[C@H](NC(=O)c3csc1n3)c1nc(cs1)C(=O)N2 (some centres not stated)
Staphylococcus aureus
  MIC: 0.5 µg/mL (≈ 0.316 µM)
Streptococcus pneumoniae
  MIC: 0.06 µg/mL (≈ 0.0379 µM)
Enterococcus faecalis
  MIC: 1 µg/mL (≈ 0.631 µM)

## C=C(NC(=O)c1csc(-c2nc3c(cc2O)-c2nc(cs2)C(=O)N[C@@H]([C@@H](C)O)C(=O)N/C(=C(\C)OC)c2nc(cs2)C(=O)N[C@@H]2c4nc(cs4)C(=O)N[C@@H](COC(=O)c4c5c6c(cccc6n4O)COC(=O)[C@@H](O[C@H]4C[C@](C)(O)[C@H](N(C)C)[C@H](C)O4)[C@H]2OC5)c2nc-3cs2)n1)C(N)=O [MJ347-81F4 A]
Mus musculus
  ED50: 0.8 mg/kg
Staphylococcus aureus
  MIC: 0.007 µg/mL (≈ 0.00487 µM)
Streptococcus pneumoniae
  MIC: 0.002 µg/mL (≈ 0.00139 µM)
Enterococcus faecalis
  MIC: 0.03 µg/mL (≈ 0.0209 µM)

## CO/C(C)=C1/NC(=O)C([C@@H](C)O)NC(=O)c2csc(n2)-c2cc(O)c(-c3nc(C(=O)NC(SCCP(=O)([O-])O)C(N)=O)cs3)nc2-c2csc(n2)[C@@H]2COC(=O)c3c4c5c(cccc5n3O)COC(=O)[C@@H](O[C@H]3C[C@](C)(O)[C@H](N(C)C)[C@H](C)O3)[C@@H](OC4)[C@H](NC(=O)c3csc1n3)c1nc(cs1)C(=O)N2.[Na+] (some centres not stated)
Staphylococcus aureus
  MIC: 2 µg/mL
Streptococcus pneumoniae
  MIC: 0.25 µg/mL
Enterococcus faecalis
  MIC: 32 µg/mL

## COCC(Cn1ccnc1)SC(NC(=O)c1csc(-c2nc3c(cc2O)-c2nc(cs2)C(=O)NC([C@@H](C)O)C(=O)N/C(=C(\C)OC)c2nc(cs2)C(=O)N[C@@H]2c4nc(cs4)C(=O)N[C@@H](COC(=O)c4c5c6c(cccc6n4O)COC(=O)[C@@H](O[C@H]4C[C@](C)(O)[C@H](N(C)C)[C@H](C)O4)[C@H]2OC5)c2nc-3cs2)n1)C(N)=O (some centres not stated)
Mus musculus
  ED50: 1.4 mg/kg
Staphylococcus aureus
  MIC: 0.25 µg/mL (≈ 0.157 µM)
Streptococcus pneumoniae
  MIC: 0.03 µg/mL (≈ 0.0188 µM)
Enterococcus faecalis
  MIC: 0.125 µg/mL (≈ 0.0783 µM)

## CO/C(C)=C1/NC(=O)C([C@@H](C)O)NC(=O)c2csc(n2)-c2cc(O)c(-c3nc(C(=O)NC(SCCS(=O)(=O)[O-])C(N)=O)cs3)nc2-c2csc(n2)[C@@H]2COC(=O)c3c4c5c(cccc5n3O)COC(=O)[C@@H](O[C@H]3C[C@](C)(O)[C@H](N(C)C)[C@H](C)O3)[C@@H](OC4)[C@H](NC(=O)c3csc1n3)c1nc(cs1)C(=O)N2.[Na+] (some centres not stated)
Mus musculus
  ED50: > 10 mg/kg
Staphylococcus aureus
  MIC: 4 µg/mL
Streptococcus pneumoniae
  MIC: 0.06 µg/mL
Enterococcus faecalis
  MIC: 128 µg/mL

## CO/C(C)=C1/NC(=O)C([C@@H](C)O)NC(=O)c2csc(n2)-c2cc(O)c(-c3nc(C(=O)NC(SCCc4nnn[nH]4)C(N)=O)cs3)nc2-c2csc(n2)[C@@H]2COC(=O)c3c4c5c(cccc5n3O)COC(=O)[C@@H](O[C@H]3C[C@](C)(O)[C@H](N(C)C)[C@H](C)O3)[C@@H](OC4)[C@H](NC(=O)c3csc1n3)c1nc(cs1)C(=O)N2 (some centres not stated)
Mus musculus
  ED50: > 10 mg/kg
Staphylococcus aureus
  MIC: 2 µg/mL (≈ 1.29 µM)
Streptococcus pneumoniae
  MIC: 0.25 µg/mL (≈ 0.161 µM)
Enterococcus faecalis
  MIC: 32 µg/mL (≈ 20.6 µM)

## CO/C(C)=C1/NC(=O)C([C@@H](C)O)NC(=O)c2csc(n2)-c2cc(O)c(-c3nc(C(=O)NC(SCC(=O)O)C(N)=O)cs3)nc2-c2csc(n2)[C@@H]2COC(=O)c3c4c5c(cccc5n3O)COC(=O)[C@@H](O[C@H]3C[C@](C)(O)[C@H](N(C)C)[C@H](C)O3)[C@@H](OC4)[C@H](NC(=O)c3csc1n3)c1nc(cs1)C(=O)N2 (some centres not stated)
Mus musculus
  ED50: > 10 mg/kg
Staphylococcus aureus
  MIC: 2 µg/mL (≈ 1.32 µM)
Streptococcus pneumoniae
  MIC: 0.125 µg/mL (≈ 0.0825 µM)
Enterococcus faecalis
  MIC: 1 µg/mL (≈ 0.66 µM)

## CO/C(C)=C1/NC(=O)C([C@@H](C)O)NC(=O)c2csc(n2)-c2cc(O)c(-c3nc(C(=O)NC(SC4CN5CCC4C5)C(N)=O)cs3)nc2-c2csc(n2)[C@@H]2COC(=O)c3c4c5c(cccc5n3O)COC(=O)[C@@H](O[C@H]3C[C@](C)(O)[C@H](N(C)C)[C@H](C)O3)[C@@H](OC4)[C@H](NC(=O)c3csc1n3)c1nc(cs1)C(=O)N2 (some centres not stated)
Mus musculus
  ED50: 2.5 mg/kg
Staphylococcus aureus
  MIC: 2 µg/mL (≈ 1.29 µM)
Streptococcus pneumoniae
  MIC: 0.25 µg/mL (≈ 0.161 µM)
Enterococcus faecalis
  MIC: 2 µg/mL (≈ 1.29 µM)
